Assay results published in patent US11655246B2, “Aminothiazole compounds as inhibitors of CTPS1” (STEP PHARMA S.A.S., priority 2017, dated 2023).

target: T1, human CTPS1 (Homo sapiens, UniProt P17812); test: Human CTPS1 enzyme inhibition (ADP-Glo Max assay); type: biochemical; settings: Table 17, 25° C., read-out: CTPS1 (Human CTPS1 Enzyme Inhibition data grouped by potency range)
T1 construct: purchased Proteros biostructures GmbH
T1 sequence (P17812 1-591): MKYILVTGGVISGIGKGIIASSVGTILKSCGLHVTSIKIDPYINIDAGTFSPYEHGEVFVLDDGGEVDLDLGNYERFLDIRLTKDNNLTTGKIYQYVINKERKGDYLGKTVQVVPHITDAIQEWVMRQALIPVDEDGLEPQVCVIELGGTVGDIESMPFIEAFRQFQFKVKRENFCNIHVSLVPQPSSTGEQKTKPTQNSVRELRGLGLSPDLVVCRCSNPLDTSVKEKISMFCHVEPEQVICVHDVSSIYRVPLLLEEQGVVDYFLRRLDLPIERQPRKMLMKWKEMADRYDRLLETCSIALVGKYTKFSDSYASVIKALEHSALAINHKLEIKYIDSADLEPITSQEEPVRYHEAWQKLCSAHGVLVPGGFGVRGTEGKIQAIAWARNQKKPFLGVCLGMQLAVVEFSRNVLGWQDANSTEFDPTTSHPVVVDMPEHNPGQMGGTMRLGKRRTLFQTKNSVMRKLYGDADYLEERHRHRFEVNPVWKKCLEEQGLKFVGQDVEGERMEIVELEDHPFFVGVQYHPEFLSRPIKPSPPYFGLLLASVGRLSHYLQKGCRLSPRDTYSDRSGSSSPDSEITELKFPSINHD
Description: The enzyme inhibitory activities of compounds invented against the target of interest were determined using the ADP-Glo™ Max assay (Promega, UK). Assays for human CTPS1 were performed in 1× assay buffer containing 50 mM Tris, 10 mM MgCl2, 0.01% Tween-20, pH to 8.0 accordingly. Finally, immediately before use, L-cysteine was added to the 1× assay buffer to a final concentration of 2 mM. All reagents are from Sigma-Aldrich unless specified otherwise.
3× human CTPS1 protein was prepared in 1× assay buffer to the final working protein concentration required for the reaction. A 2 uL volume per well of 3× human CTPS1 protein was mixed with 2 uL per well of 3× test compound (compound prepared in 1× assay buffer to an appropriate final 3× compound concentration respective to the concentration response curve designed for the compounds under test) for 10 minutes at 25° C. […] ADP-Glo™ Max reagent was added for 60 minutes (6 uL per well) and subsequently ADP-Glo™ Max development reagent was added for 60 minutes (12 uL per well) prior to signal detection in a microplate reader (EnVision® Multilabel Reader, Perkin Elmer). Following each reagent addition over the course of the assay, assay plates were pulse centrifuged for 30 seconds at 500 rpm.
In all cases, the enzyme converts ATP to ADP and the ADP-Glo™ Max reagent subsequently depletes any remaining endogenous ATP in the reaction system. The ADP-Glo™ Max detection reagent converts the ADP that has been enzymatically produced back into ATP and using ATP as a substrate together with luciferin for the enzyme luciferase, light is generated which produces a detectable luminescence. […] The percentage inhibition produced by each concentration of compound was calculated using the equation shown below: […]

IC50	SMILES
100 to 1000 nM	O=C(Cc1csc(NS(=O)(=O)C2CC2)n1)Nc1ccc(-c2cccnc2)cc1Cl [T16, N-(2-chloro-4-(pyridin-3-yl)phenyl)-2-(2-(cyclopropanesulfonamido)thiazol-4-yl)acetamide]
100 to 1000 nM	Cc1sc(NS(=O)(=O)C2CC2)nc1C(C)(C)C(=O)Nc1ccc(-c2cncc(C(F)(F)F)n2)cc1 [T17, 2-(2-(cyclopropanesulfonamido)-5-methylthiazol-4-yl)-2-methyl-N-(4-(6-(trifluoromethyl)pyrazin-2-yl)phenyl)propanamide]
< 100 nM	CC(C)(C(=O)Nc1ccc(-c2cncnc2)cc1)c1csc(NS(=O)(=O)C2CC2)n1 [T18, 2-(2-(cyclopropanesulfonamido)thiazol-4-yl)-2-methyl-N-(4-(pyrimidin-5-yl)phenyl)propanamide]
100 to 1000 nM	CN(C)C(=O)c1cncc(-c2ccc(NC(=O)C(C)(C)c3csc(NS(=O)(=O)C4CC4)n3)cc2)n1 [T19, 6-(4-(2-(2-(cyclopropanesulfonamido)thiazol-4-yl)-2-methylpropanamido)phenyl)-N,N-dimethylpyrazine-2-carboxamide]
100 to 1000 nM	CC(C)(C(=O)Nc1ncc(-c2cncc(C#N)c2)cn1)c1csc(NS(=O)(=O)C2CC2)n1 [T20, N-(5-(5-cyanopyridin-3-yl)pyrimidin-2-yl)-2-(2-(cyclopropanesulfonamido)thiazol-4-yl)-2-methylpropanamide]
1000 to 10000 nM	O=C(Cc1nc(NS(=O)(=O)C2CC2)sc1Cl)Nc1ccc(-c2ccccc2)cc1 [T21, N-([1,1′-biphenyl]-4-yl)-2-(5-chloro-2-(cyclopropanesulfonamido)thiazol-4-yl)acetamide]
< 100 nM	C#Cc1cncc(-c2ccc(NC(=O)C(CC)c3csc(NS(=O)(=O)C4CC4)n3)cc2)n1 (centres unmarked) [T22, 2-(2-(cyclopropanesulfonamido)thiazol-4-yl)-N-(4-(6-ethynylpyrazin-2-yl)phenyl)butanamide]
100 to 1000 nM	CC(C(=O)Nc1ccc(-c2cccnc2)nc1)c1csc(NS(=O)(=O)C2CC2)n1 (centres unmarked) [T27]
< 100 nM	CCC(C(=O)Nc1ccc(-c2cncc(OC)n2)cc1)c1csc(NS(=O)(=O)C2CC2)n1 (centres unmarked) [T33]
100 to 1000 nM	CC(C)(C(=O)Nc1ccc(-c2cnccn2)c(F)c1)c1csc(NS(=O)(=O)C2CC2)n1 [T39]
100 to 1000 nM	CC(C)(C(=O)Nc1ccc(-c2cccnc2)cc1Cl)c1csc(NS(=O)(=O)C2CC2)n1 [T41]
< 100 nM	COc1cncc(-c2ccc(NC(=O)C(OC)c3csc(NS(=O)(=O)C4CC4)n3)cc2)n1 (centres unmarked) [T57]
< 100 nM	CC(C)OC(C(=O)Nc1ccc(-c2cncc(Cl)c2)cc1)c1csc(NS(=O)(=O)C2CC2)n1 (centres unmarked) [T58]
< 100 nM	COCCC(C(=O)Nc1ccc(-c2cncc(C(F)(F)F)n2)cn1)c1csc(NS(=O)(=O)C2CC2)n1 (centres unmarked) [T59]
1000 to 10000 nM	CCC(C(=O)Nc1ccc(-c2ccnnc2)cc1)c1csc(NS(=O)(=O)C2CC2)n1 (centres unmarked) [T69]
100 to 1000 nM	CCC(C(=O)Nc1ccc(-c2cnccn2)cc1)c1csc(NS(=O)(=O)C2CC2)n1 (centres unmarked) [T70]
< 100 nM	COCCC(C(=O)Nc1ccc(-c2cncc(Cl)c2)cc1)c1csc(NS(=O)(=O)C2CC2)n1 (centres unmarked) [T71]
< 100 nM	CCC(C(=O)Nc1ccc(-c2cncc(C(F)(F)F)n2)cc1)c1csc(NS(=O)(=O)C2CC2)n1 (centres unmarked) [T73]
100 to 1000 nM	CC(C)C(C(=O)Nc1ccc(-c2cnccn2)cc1)c1csc(NS(=O)(=O)C2CC2)n1 (centres unmarked) [T74]
< 100 nM	CCCOc1cncc(-c2ccc(NC(=O)C(CC)c3csc(NS(=O)(=O)C4CC4)n3)cc2)n1 (centres unmarked) [T75]
< 100 nM	CCC(C(=O)Nc1ccc(-c2cncc(OC(C)C)n2)cc1)c1csc(NS(=O)(=O)C2CC2)n1 (centres unmarked) [T76]
< 100 nM	CCC(C(=O)Nc1ccc(-c2cncc(OC3CC3)n2)cc1)c1csc(NS(=O)(=O)C2CC2)n1 (centres unmarked) [T77]
< 100 nM	CCC(C(=O)Nc1ccc(-c2cncc(Cl)n2)cc1)c1csc(NS(=O)(=O)C2CC2)n1 (centres unmarked) [T78, N-(4-(6-chloropyrazin-2-yl)phenyl)-2-(2-(cyclopropanesulfonamido)thiazol-4-yl)butanamide]
